This passage reports IC50 results from patent US20260207602A1, “EGFR INHIBITORS” (Blueprint Medicines Corporation, priority 2022, published 2026).

As usually defined, the IC50 is the point on the concentration scale where inhibition reaches its midpoint.

Experiment [1] concerns the target T1, EGFR L858R (Homo sapiens, UniProt P00533, L858R).
T1 construct: purchased SignalChem E10-122BG
Description: Biochemical EGFR inhibition assay (Caliper mobility shift), EGFR L858R. Particulars: biochemical Caliper mobility shift assay, EGFR L858R enzyme; read-out: Enz EGFR L858R IC50. The procedure, abridged: (§1)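 Apparent IC50 from Caliper separation of phospho-peptide from substrate. Conditions: 2.5 µM 5-FAM peptide, 1.0 mM ATP or ATP Km, pH 7.5 HEPES buffer, room temperature, 10–20% conversion, EDTA stop.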

Experiment [2] has as its target T2, EGFR (d746-750) (Homo sapiens, UniProt P00533, DEL746-750).
T2 construct: purchased SignalChem E10-122JG
Nature of the experiment: Biochemical EGFR inhibition assay (Caliper mobility shift), EGFR (d746-750). The note with it: biochemical Caliper mobility shift assay, EGFR Exon 19-del enzyme; read-out: Enz EGFR Exon 19-del IC50. The procedure, abridged: as §1

Experiment [3] concerns the target intracellular phosphorylation of EGFR (Tyr1068) in PC-9 cells (Homo sapiens, UniProt P00533, DEL746-750). Description: PC-9 pEGFR AlphaLISA assay. Particulars: 4 hours incubation, read-out: Phos EGFR PC9 IC50. The class given is cell-based. The procedure, abridged:
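PC-9 cells (EGFR del746-750) in phenol-free DMEM/10% FBS, adhered overnight, then exposed to 10-point 4-fold compound dilutions for 4 h at 37 °C. Lysates assayed for pEGFR Tyr1068 by AlphaLISA SureFire Ultra; IC50 from percent pEGFR inhibition vs log concentration.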
For orientation: Bead proximity is the source of the signal in Alpha formats.

A value given as a limit tells only on which side of the number the result lay.

T2 sequence (P00533 with tags, fused parts or gaps DEL746-750 limits assumed): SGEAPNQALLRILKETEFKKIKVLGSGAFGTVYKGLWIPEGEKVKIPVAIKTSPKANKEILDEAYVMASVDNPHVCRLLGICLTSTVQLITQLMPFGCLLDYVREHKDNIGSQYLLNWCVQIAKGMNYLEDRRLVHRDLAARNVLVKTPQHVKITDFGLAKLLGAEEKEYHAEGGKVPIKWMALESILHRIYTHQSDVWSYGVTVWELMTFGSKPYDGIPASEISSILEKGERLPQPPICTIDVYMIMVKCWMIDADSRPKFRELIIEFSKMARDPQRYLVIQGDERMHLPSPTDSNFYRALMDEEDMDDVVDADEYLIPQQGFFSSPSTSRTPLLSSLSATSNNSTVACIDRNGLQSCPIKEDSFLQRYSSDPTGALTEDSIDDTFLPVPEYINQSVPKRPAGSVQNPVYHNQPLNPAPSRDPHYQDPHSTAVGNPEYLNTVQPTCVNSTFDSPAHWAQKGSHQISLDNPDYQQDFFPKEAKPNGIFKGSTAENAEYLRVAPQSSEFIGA
T1 sequence (P00533 25-1210 L858R): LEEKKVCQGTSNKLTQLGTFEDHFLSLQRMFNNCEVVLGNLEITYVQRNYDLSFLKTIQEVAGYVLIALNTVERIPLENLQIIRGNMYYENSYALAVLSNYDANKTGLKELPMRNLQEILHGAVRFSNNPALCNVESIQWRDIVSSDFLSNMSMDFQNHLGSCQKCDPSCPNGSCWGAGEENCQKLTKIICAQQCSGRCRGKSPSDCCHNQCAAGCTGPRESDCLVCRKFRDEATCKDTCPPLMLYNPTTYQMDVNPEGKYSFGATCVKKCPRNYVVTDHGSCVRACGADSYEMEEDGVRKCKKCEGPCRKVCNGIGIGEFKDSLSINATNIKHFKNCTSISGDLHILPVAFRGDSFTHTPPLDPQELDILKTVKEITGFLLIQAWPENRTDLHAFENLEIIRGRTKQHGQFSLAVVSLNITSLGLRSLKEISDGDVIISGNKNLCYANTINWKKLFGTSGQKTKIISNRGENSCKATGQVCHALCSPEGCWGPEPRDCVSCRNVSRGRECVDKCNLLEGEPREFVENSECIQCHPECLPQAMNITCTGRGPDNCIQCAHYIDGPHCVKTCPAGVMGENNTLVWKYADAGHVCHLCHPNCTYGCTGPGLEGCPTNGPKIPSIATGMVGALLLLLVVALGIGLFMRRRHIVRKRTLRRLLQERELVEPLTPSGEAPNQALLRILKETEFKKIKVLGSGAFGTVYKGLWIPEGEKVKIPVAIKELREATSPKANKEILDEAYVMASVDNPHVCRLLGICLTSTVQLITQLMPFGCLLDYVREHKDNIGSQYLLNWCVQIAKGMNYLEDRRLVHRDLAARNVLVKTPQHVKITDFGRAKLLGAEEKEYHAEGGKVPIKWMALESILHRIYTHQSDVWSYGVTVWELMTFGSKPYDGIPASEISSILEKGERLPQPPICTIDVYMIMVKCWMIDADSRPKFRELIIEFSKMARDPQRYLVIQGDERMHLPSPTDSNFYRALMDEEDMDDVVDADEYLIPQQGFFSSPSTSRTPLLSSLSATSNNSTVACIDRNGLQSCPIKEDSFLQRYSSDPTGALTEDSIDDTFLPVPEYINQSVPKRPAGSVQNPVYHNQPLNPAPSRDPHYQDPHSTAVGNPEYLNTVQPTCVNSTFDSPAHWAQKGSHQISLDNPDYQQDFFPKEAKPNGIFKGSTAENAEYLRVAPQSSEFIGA
Chain of intracellular phosphorylation of EGFR (Tyr1068) in PC-9 cells (P00533 with tags, fused parts or gaps DEL746-750): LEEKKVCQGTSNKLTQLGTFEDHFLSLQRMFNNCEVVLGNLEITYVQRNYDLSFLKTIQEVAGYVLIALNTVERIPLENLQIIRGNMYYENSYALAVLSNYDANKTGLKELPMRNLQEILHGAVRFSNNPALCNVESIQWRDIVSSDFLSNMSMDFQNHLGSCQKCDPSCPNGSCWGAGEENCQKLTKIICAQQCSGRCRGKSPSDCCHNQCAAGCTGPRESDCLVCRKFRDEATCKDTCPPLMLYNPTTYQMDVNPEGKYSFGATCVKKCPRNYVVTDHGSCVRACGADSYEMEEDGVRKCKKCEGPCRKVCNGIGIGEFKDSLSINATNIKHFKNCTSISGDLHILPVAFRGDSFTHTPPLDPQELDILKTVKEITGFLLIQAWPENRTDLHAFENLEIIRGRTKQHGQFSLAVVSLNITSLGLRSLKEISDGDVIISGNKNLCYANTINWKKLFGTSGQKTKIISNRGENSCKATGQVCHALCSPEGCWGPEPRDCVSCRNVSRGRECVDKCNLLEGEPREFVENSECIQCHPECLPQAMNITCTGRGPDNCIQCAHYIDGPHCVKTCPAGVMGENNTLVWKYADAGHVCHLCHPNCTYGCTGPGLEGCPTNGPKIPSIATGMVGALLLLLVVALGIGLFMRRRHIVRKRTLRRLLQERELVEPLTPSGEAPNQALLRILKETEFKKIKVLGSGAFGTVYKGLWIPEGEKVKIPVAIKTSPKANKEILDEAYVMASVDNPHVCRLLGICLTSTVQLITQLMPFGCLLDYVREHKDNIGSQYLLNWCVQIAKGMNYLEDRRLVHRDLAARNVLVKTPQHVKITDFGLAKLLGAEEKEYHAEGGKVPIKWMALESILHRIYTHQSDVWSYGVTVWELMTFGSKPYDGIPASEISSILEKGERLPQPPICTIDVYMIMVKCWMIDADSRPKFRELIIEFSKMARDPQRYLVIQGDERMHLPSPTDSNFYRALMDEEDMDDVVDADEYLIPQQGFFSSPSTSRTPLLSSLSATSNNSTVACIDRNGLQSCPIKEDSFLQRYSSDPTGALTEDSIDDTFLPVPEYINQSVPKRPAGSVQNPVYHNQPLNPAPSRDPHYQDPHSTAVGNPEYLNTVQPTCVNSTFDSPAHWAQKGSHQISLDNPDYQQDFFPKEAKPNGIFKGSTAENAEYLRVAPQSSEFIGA

As to `CN1CCC(Oc2cc(-c3ccc(S(C)(=O)=O)cc3)cc3ncnc(Nc4ccc5ncsc5c4)c23)CC1` [Example 243, N-(5-((1-methylpiperidin-4-yl)oxy)-7-(4-(methylsulfonyl)phenyl)quinazolin-4-yl)benzo[d]thiazol-6-amine], the IC50 in experiment [1], in experiment [2] and in experiment [3] was 10.1 to 50 nM in each case.
Regarding `Cn1cc(-c2cc(O[C@H]3CNCC[C@@H]3O)c3c(Nc4ccc5ncsc5c4)ncnc3c2)cn1` (racemic) [Example A45, (3S,4S)-3-((4-(benzo[d]thiazol-6-ylamino)-7-(1-methyl-1H-pyrazol-4-yl)quinazolin-5-yl)oxy)piperidin-4-ol], the IC50 in experiment [1] is 10.1 to 50 nM; in experiment [2] it was no more than 10 nM; in experiment [3], greater than 50.1 nM.
On the same counts, the results for `COc1nn(C)cc1-c1cc(O[C@H](C)C2COC2)c2c(Nc3ccc4ncsc4c3F)ncnc2c1` (single isomer, unassigned) [Example 78] are no more than 10 nM, no more than 10 nM and no more than 10 nM.
Turning to `COc1nn(C)cc1-c1cc(O[C@H]2COC[C@@H]2O)c2c(Nc3ccc4ncsc4c3)ncnc2c1` (single isomer, unassigned) [Example A49], the IC50 is 10.1 to 50 nM in experiment [1], no more than 10 nM in experiment [2] and 10.1 to 50 nM in experiment [3].
As for `Cn1cc(-c2cc(O[C@H]3CC[C@@H](N)CC3)c3c(Nc4ccc5ncsc5c4)ncnc3c2)cn1` [Example A09, N-(5-(((1s,4s)-4-aminocyclohexyl)oxy)-7-(1-methyl-1H-pyrazol-4-yl)quinazolin-4-yl)benzo[d]thiazol-6-amine], the IC50 in experiment [1], in experiment [2] and in experiment [3] was no more than 10 nM each time.
Take `CO[C@@H]1CCN(c2cc(O[C@H](C)C3COC3)c3c(Nc4ccc5ncsc5c4)ncnc3c2)C1` [Example 198, N-(7-((R)-3-methoxypyrrolidin-1-yl)-5-((R)-1-(oxetan-3-yl)ethoxy)quinazolin-4-yl)benzo[d]thiazol-6-amine]: the IC50 in experiment [1], in experiment [2] and in experiment [3] was no more than 10 nM each time.
Take `CO[C@@H]1CCN(C)C[C@H]1Oc1cc(-c2cnn(C)c2)cc2ncnc(Nc3ccc4ncsc4c3)c12` (single isomer, unassigned) [Example A39]: the half-maximal inhibitory concentration (IC50) in experiment [1] was 10.1 to 50 nM; in experiment [2] it was no more than 10 nM; in experiment [3], greater than 50.1 nM.
In the same order, the values of `COc1cc2ncnc(Nc3ccc4ncsc4c3)c2cc1NC(=O)C1CCCN(C)C1` (stereo not drawn) [Example 401, N-(4-(benzo[d]thiazol-6-ylamino)-7-methoxyquinazolin-6-yl)-1-methylpiperidine-3-carboxamide] are 10.1 to 50 nM, 10.1 to 50 nM and 10.1 to 50 nM.
For the molecule `Cn1cc(-c2cc3ncnc(Nc4ccc5ncsc5c4F)c3cc2OC2CCOC2)cn1` (stereo not drawn) [Example 261, 7-fluoro-N-(7-(1-methyl-1H-pyrazol-4-yl)-6-((tetrahydrofuran-3-yl)oxy)quinazolin-4-yl)benzo[d]thiazol-6-amine], the IC50 in experiment [1], in experiment [2] and in experiment [3] was no more than 10 nM in each case.
`CC[C@H](Oc1cc(-c2cnn(C)c2)cc2ncnc(Nc3ccc4ncsc4c3F)c12)C1CN(C)C1` (single isomer, unassigned) [Example 389]: the IC50 in experiment [1] is 10.1 to 50 nM; in experiment [2] it was no more than 10 nM; in experiment [3], 10.1 to 50 nM.
Regarding `CN1CC[C@H](Oc2cc(-c3cn(C)nc3OC(F)F)cc3ncnc(Nc4ccc5ncsc5c4)c23)[C@@H](F)C1` (single isomer, unassigned) [Example 368], the IC50 was no more than 10 nM in experiment [1], no more than 10 nM in experiment [2] and 10.1 to 50 nM in experiment [3].
Take `CN1CCC[C@H](Oc2cc(-c3cn(C)nn3)cc3ncnc(Nc4ccc5ncsc5c4)c23)C1` [Example 247, (S)-N-(7-(1-methyl-1H-1,2,3-triazol-4-yl)-5-((1-methylpiperidin-3-yl)oxy)quinazolin-4-yl)benzo[d]thiazol-6-amine]: the figures for the IC50 in experiment [1], in experiment [2] and in experiment [3] were no more than 10 nM, no more than 10 nM and 10.1 to 50 nM, respectively.
As to `COC[C@H](C)Oc1cc(N2CCN(C)CC2)cc2ncnc(Nc3ccc4ncsc4c3)c12` (single isomer, unassigned) [Example 205], the IC50 in experiment [1] is no more than 10 nM; in experiment [2] it was no more than 10 nM; in experiment [3], 10.1 to 50 nM.
With `C[C@@H]1CN(c2cc(O[C@H](C)C3COC3)c3c(Nc4ccc5ncsc5c4F)ncnc3c2)CCN1` (single isomer, unassigned) [Example 101], the IC50 in experiment [1], in experiment [2] and in experiment [3] was 10.1 to 50 nM throughout.
`CO[C@H]1COC[C@@H]1Oc1cc(-c2cnn(C)c2)cc2ncnc(Nc3ccc4ncsc4c3)c12` (single isomer, unassigned) [Example A32]: the IC50 in experiment [1] was 10.1 to 50 nM; in experiment [2], no more than 10 nM; in experiment [3], 10.1 to 50 nM.
`Cn1cc(-c2cc(O[C@@H]3CC[C@@H]3O)c3c(Nc4ccc5ncsc5c4)ncnc3c2)cn1` (single isomer, unassigned) [Example A51]: the IC50 in experiment [1], in experiment [2] and in experiment [3] was no more than 10 nM in each case.
For `C[C@H](CN(C)C)Oc1cc(-c2cnn(C)c2)cc2ncnc(Nc3ccc4ncsc4c3F)c12` [Example 140, (R)-N-(5-((1-(dimethylamino)propan-2-yl)oxy)-7-(1-methyl-1H-pyrazol-4-yl)quinazolin-4-yl)-7-fluorobenzo[d]thiazol-6-amine], the IC50 in experiment [1], in experiment [2] and in experiment [3] was no more than 10 nM each time.
As to `COC[C@@H](C)Oc1cc(N2CCNCC2)cc2ncnc(Nc3ccc4ncsc4c3)c12` [Example 195, (R)-N-(5-((1-methoxypropan-2-yl)oxy)-7-(piperazin-1-yl)quinazolin-4-yl)benzo[d]thiazol-6-amine], the results for the IC50 in experiment [1], in experiment [2] and in experiment [3] were no more than 10 nM, no more than 10 nM and 10.1 to 50 nM, respectively.
On to `C[C@@H](Oc1cc(-c2cnn(C)c2)cc2ncnc(Nc3ccc4ncsc4c3)c12)C(F)(F)F` [Example 67, (R)-N-(7-(1-methyl-1H-pyrazol-4-yl)-5-((1,1,1-trifluoropropan-2-yl)oxy)quinazolin-4-yl)benzo[d]thiazol-6-amine], for which the half-inhibitory concentration (IC50) is no more than 10 nM in experiment [1], no more than 10 nM in experiment [2] and 10.1 to 50 nM in experiment [3].
As for `CN1CCC[C@@H]1COc1cc(-c2cnn(C)c2)cc2ncnc(Nc3ccc4ncsc4c3)c12` [Example 33, (R)-N-(7-(1-methyl-1H-pyrazol-4-yl)-5-((1-methylpyrrolidin-2-yl)methoxy)quinazolin-4-yl)benzo[d]thiazol-6-amine], the IC50 in experiment [1] was no more than 10 nM; in experiment [2] it was no more than 10 nM; in experiment [3], 10.1 to 50 nM.
For the molecule `Cn1cc(-c2cc(OC3CCN(C4CCOCC4)CC3)c3c(Nc4ccc5ncsc5c4)ncnc3c2)cn1` [Example 412, N-(7-(1-methyl-1H-pyrazol-4-yl)-5-((1-(tetrahydro-2H-pyran-4-yl)piperidin-4-yl)oxy)quinazolin-4-yl)benzo[d]thiazol-6-amine], the IC50 in experiment [1] was 10.1 to 50 nM; in experiment [2], no more than 10 nM; in experiment [3], 10.1 to 50 nM.
Turning to `CO[C@@H]1CN(C)CC[C@H]1Oc1cc(-c2cnn(C)c2)cc2ncnc(Nc3ccc4ncsc4c3)c12` (single isomer, unassigned) [Example A43], the IC50 in experiment [1] was no more than 10 nM; in experiment [2], no more than 10 nM; in experiment [3] it was 10.1 to 50 nM.
